Values quoted from earlier work as cited in patent publication US20090131508A1, “Use of 2-Oxo-1-Pyrrolidone Derivatives for the Preparation of a Drug” (UCB PHARMA, S.A., priority 2005, published 2009).

System: epilepsy
Conditions: A. J. Gower et al., Eur. J. Pharmacol., 222, (1992), 193-203; cited from earlier work

SMILES: CC[C@H](C(N)=O)N1CCCC1=O [(R)-(+)-α-ethyl-2-oxo-1-pyrrolidine-acetamide]
- Activity in the treatment of epilepsy: completely devoid of activity
